Test results reported in patent US20210015098A1, “MOLECULES HAVING PESTICIDAL UTILITY, AND INTERMEDIATES, COMPOSITIONS, AND PROCESSES, RELATED THERETO” (DOW AGROSCIENCES LLC, priority 2018, published 2021).

Assays:
Assay type in all cases: in vivo
[1] = tested on: Cabbage Looper (Trichoplusia ni, TRIPNI); experiment: Bioassays on Cabbage Looper (CL), 128-well diet tray assay; conditions: for mortality at 50 µg/cm2: 168 h, 50 μg/cm^2 on artificial diet, second instar larvae, 25° C., five to seven days, read-out: CL % Control (or Mortality) rating; for pest or weed control at 50 µg/cm2: Cabbage Looper, Table ABC Biological Results, read-out: CL (rating)
Description: (§1) Certain molecules disclosed in this document were tested against BAW and CL using procedures described in the following examples. In the reporting of the results, the “BAW & CL Rating Table” was used (See Table Section).
Bioassays on CL were conducted using a 128-well diet tray assay. One to five second instar CL larvae were placed in each well (3 mL) of the diet tray that had been previously filled with 1 mL of artificial diet to which 50 μg/cm^2 of the test molecule (dissolved in 50 μL of 90:10 acetone-water mixture) had been applied (to each of eight wells) and then allowed to dry. Trays were covered with a clear self-adhesive cover, vented to allow gas exchange, and held at 25° C., 14:10 light-dark for five to seven days. Percent mortality was recorded for the larvae in each well; activity in the eight wells was then averaged. The results are indicated in the table entitled “Table ABC: Biological Results” (See Table Section).

[2] = tested on: Yellow Fever Mosquito (Aedes aegypti, AEDSAE); conditions: about 1 day-old larvae, 96-well plate, room temperature, 3 days
Description: Certain molecules disclosed in this document were tested against YFM using procedures described in the following paragraph. In the reporting of the results, the “GPA & YFM Rating Table” was used (See Table Section).
Master plates containing 400 μg of a molecule dissolved in 100 μL of dimethyl sulfoxide (DMSO) (equivalent to a 4000 ppm solution) are used. A master plate of assembled molecules contains 15 μL per well. To this plate, 135 μL of a 90:10 water/acetone mixture is added to each well. A robot (Biomek® NXP Laboratory Automation Workstation) is programmed to dispense 15 μL aspirations from the master plate into an empty 96-well shallow plate (“daughter” plate). There are 6 reps (“daughter” plates) created per master. The created “daughter” plates are then immediately infested with YFM larvae.
The day before plates are to be treated, mosquito eggs are placed in Millipore water containing liver powder to begin hatching (4 g into 400 mL). After the “daughter” plates are created using the robot, they are infested with 220 μL of the liver powder/larval mosquito mixture (about 1 day-old larvae). After plates are infested with mosquito larvae, a non-evaporative lid is used to cover the plate to reduce drying. Plates are held at room temperature for 3 days prior to grading. After 3 days, each well is observed and scored based on mortality. The results are indicated in the table entitled “Table ABC: Biological Results” (See Table Section).

[3] = tested on: Beet Armyworm (Spodoptera exigua, LAPHEG); experiment: Bioassays on Beet Armyworm (BAW), 128-well diet tray assay; conditions: for mortality at 50 µg/cm2: 168 h, 50 μg/cm^2 on artificial diet, second instar larvae, 25° C., five to seven days, read-out: BAW % Control (or Mortality) rating; for pest or weed control at 50 µg/cm2: Beet Armyworm, Table ABC Biological Results, read-out: BAW (rating)
Description: as §1
Bioassays on BAW were conducted using a 128-well diet tray assay. One to five second instar BAW larvae were placed in each well (3 mL) of the diet tray that had been previously filled with 1 mL of artificial diet to which 50 μg/cm^2 of the test molecule (dissolved in 50 μL of 90:10 acetone-water mixture) had been applied (to each of eight wells) and then allowed to dry. Trays were covered with a clear self-adhesive cover, vented to allow gas exchange, and held at 25° C., 14:10 light-dark for five to seven days. Percent mortality was recorded for the larvae in each well; activity in the eight wells was then averaged. The results are indicated in the table entitled “Table ABC: Biological Results” (See Table Section).

Question: Which results are given for `Nc1c(F)ccc(NC(=O)c2cc(NC(=O)[C@H]3[C@H](c4cc(C(F)(F)F)cc(C(F)(F)F)c4)C3(Cl)Cl)ccc2Cl)c1F` (relative stereo) [DP7, trans-N-(3-Amino-2,4-difluorophenyl)-5-(3-(3,5-bis(trifluoromethyl)phenyl)-2,2-dichlorocyclopropane-1-carboxamido)-2-chlorobenzamide]?
Answer: mortality at 50 µg/cm2 [1]: 50 to 100%; YFM % Control (or Mortality) rating [2]: A (80-100); mortality at 50 µg/cm2 [3]: 50 to 100%

Question: `CC(C)(C)OC(=O)N(C(=O)OC(C)(C)C)c1c(F)ccc(NC(=O)c2cc(NC(=O)[C@H]3[C@H](c4cc(Cl)c(Cl)c(Cl)c4)C3(Cl)Cl)ccc2Cl)c1F` [DP1, tert-butyl-N-((tert-butoxy)carbonyl)-N-(3-(2-chloro-5-((1R,3R)-2,2-dichloro-3-(3,4,5-trichlorophenyl)cyclopropane-1-carboxamido)benzamido)-2,6-difluorophenyl)carbamate] was tested. Which mortality at 50 µg/cm2 [1] did it give?
Answer: The mortality at 50 µg/cm2 was 0%.

Question: What about the “YFM % Control (or Mortality) rating” value [2] of the same compound?
Answer: Its value is “D (No activity noticed in this bioassay)”.

Question: What about the mortality at 50 µg/cm2 [3] of the same compound?
Answer: The mortality at 50 µg/cm2 was 0 to 50%.

Question: Which results are given for `Nc1c(F)ccc(NC(=O)c2cc(NC(=O)[C@H]3[C@H](c4cc(Cl)c(Cl)c(Cl)c4)C3(Cl)Cl)ccc2Cl)c1F` [DP2, N-(3-amino-2,4-difluorophenyl)-2-chloro-5-((1R,3R)-2,2-dichloro-3-(3,4,5-trichlorophenyl)cyclopropane-1-carboxamido)benzamide]?
Answer: mortality at 50 µg/cm2 [1]: 50 to 100%; YFM % Control (or Mortality) rating [2]: A (80-100); mortality at 50 µg/cm2 [3]: 50 to 100%

Question: Which mortality at 50 µg/cm2 [1] does the source give for `Nc1c(F)ccc(NC(=O)c2cc(NC(=O)[C@H]3[C@H](c4ccc(Cl)c(Cl)c4)C3(Cl)Cl)ccc2Cl)c1F` [DP3, N-(3-Amino-2,4-difluorophenyl)-2-chloro-5-((1R,3R)-2,2-dichloro-3-(3,4-dichlorophenyl)cyclopropane-1-carboxamido)benzamide] here?
Answer: Its mortality at 50 µg/cm2 is 50 to 100%.

Question: And the “YFM % Control (or Mortality) rating” value [2]?
Answer: The value was “A (80-100)”.

Question: And the mortality at 50 µg/cm2 [3]?
Answer: The mortality at 50 µg/cm2 was 50 to 100%.

Question: What does the source list for `Nc1c(F)ccc(NC(=O)c2cc(NC(=O)[C@H]3[C@H](c4ccc(F)c(Cl)c4)C3(Cl)Cl)ccc2Cl)c1F` [DP4, N-(3-Amino-2,4-difluorophenyl)-2-chloro-5-((1R,3R)-2,2-dichloro-3-(3-chloro-4-fluorophenyl)cyclopropane-1-carboxamido)benzamide]?
Answer: mortality at 50 µg/cm2 [1]: 50 to 100%; YFM % Control (or Mortality) rating [2]: A (80-100); mortality at 50 µg/cm2 [3]: 50 to 100%

Question: Which results are given for `CC(C(=O)Nc1c(F)ccc(NC(=O)c2cc(NC(=O)[C@H]3[C@H](c4ccc(F)c(Cl)c4)C3(Cl)Cl)ccc2Cl)c1F)S(=O)(=O)C(F)(F)F` (stereo partly drawn) [F39, 2-Chloro-5-((1R,3R)-2,2-dichloro-3-(3-chloro-4-fluorophenyl)cyclopropane-1-carboxamido)-N-(2,4-difluoro-3-(2-((trif1uoromethyl)sulfonyl)propanamido)phenyl)benzamide]?
Answer: pest or weed control at 50 µg/cm2 [1]: 50 to 100%; pest or weed control at 50 µg/cm2 [3]: 50 to 100%

Question: Which results are given for `O=C(CS(=O)(=O)C(F)(F)F)Nc1c(F)ccc(NC(=O)c2cc(NC(=O)[C@H]3[C@H](c4ccc(F)c(Cl)c4)C3(Cl)Cl)ccc2Cl)c1F` [F40]?
Answer: pest or weed control at 50 µg/cm2 [1]: 50 to 100%; pest or weed control at 50 µg/cm2 [3]: 50 to 100%

Question: How did the pest or weed control at 50 µg/cm2 [1] turn out when `O=C(CS(=O)(=O)CC(F)(F)F)Nc1c(F)ccc(NC(=O)c2cc(NC(=O)[C@H]3[C@H](c4cc(Cl)c(Cl)c(Cl)c4)C3(Cl)Cl)ccc2Cl)c1F` [F41, 2-Chloro-5-((1R,3R)-2,2-dichloro-3-(3,4,5-trichlorophenyl)cyclopropane-1-carboxamido)-N-(2,4-difluoro-3-(2-((2,2,2-trifluoroethyl)sulfonyl)acetamido)phenyl)benzamide] was run?
Answer: The pest or weed control at 50 µg/cm2 was 50 to 100%.

Question: What about the pest or weed control at 50 µg/cm2 [3] of the same compound?
Answer: Its pest or weed control at 50 µg/cm2 is 50 to 100%.

Question: With `O=C(CS(=O)(=O)CC(F)(F)F)Nc1c(F)ccc(NC(=O)c2cc(NC(=O)[C@H]3[C@H](c4ccc(Cl)c(Cl)c4)C3(Cl)Cl)ccc2Cl)c1F` [F42, 2-chloro-5-((1R,3R)-2,2-dichloro-3-(3,4-dichlorophenyl)cyclopropane-1-carboxamido)-N-(2,4-difluoro-3-(2-((2,2,2-trifluoroethyl)sulfonyl)acetamido)phenyl)benzamide] as the compound, how does the pest or weed control at 50 µg/cm2 [1] read?
Answer: The pest or weed control at 50 µg/cm2 was 50 to 100%.

Question: What about the pest or weed control at 50 µg/cm2 [3] of the same compound?
Answer: Its pest or weed control at 50 µg/cm2 is 50 to 100%.

Question: `O=C(CS(=O)(=O)CC(F)(F)F)Nc1c(F)ccc(NC(=O)c2cc(NC(=O)[C@H]3[C@H](c4ccc(F)c(Cl)c4)C3(Cl)Cl)ccc2Cl)c1F` [F43, 2-Chloro-5-((1R,3R)-2,2-dichloro-3-(3-chloro-4-fluorophenyl)cyclopropane-1-carboxamido)-N-(2,4-difluoro-3-(2-((2,2,2-trifluoroethyl)sulfonyl)acetamido)phenyl)benzamide] was tested. Which pest or weed control at 50 µg/cm2 [1] did it give?
Answer: Its pest or weed control at 50 µg/cm2 is 50 to 100%.

Question: And the pest or weed control at 50 µg/cm2 [3]?
Answer: Its pest or weed control at 50 µg/cm2 is 50 to 100%.

Question: `O=C(CS(=O)(=O)CC(F)(F)F)Nc1c(F)ccc(NC(=O)c2cc(NC(=O)[C@H]3[C@H](c4ccc(F)c(C(F)(F)F)c4)C3(Cl)Cl)ccc2Cl)c1F` [F44, 2-Chloro-5-((1R,3R)-2,2-dichloro-3-(4-fluoro-3-(trifluoromethyl)phenyl)cyclopropane-1-carboxamido)-N-(2,4-difluoro-3-(2-((2,22-trifluoroethyl)sulfonyl)acetamido)phenyl)benzamide] was tested. Which pest or weed control at 50 µg/cm2 [1] did it give?
Answer: Its pest or weed control at 50 µg/cm2 is 50 to 100%.

Question: What about the pest or weed control at 50 µg/cm2 [3] of the same compound?
Answer: The pest or weed control at 50 µg/cm2 was 50 to 100%.

Question: How did the pest or weed control at 50 µg/cm2 [1] turn out when `CCS(=O)(=O)C(C)C(=O)Nc1c(F)ccc(NC(=O)c2cc(NC(=O)[C@H]3[C@H](c4ccc(F)c(C(F)(F)F)c4)C3(Cl)Cl)ccc2Cl)c1F` (stereo partly drawn) [F45, 2-chloro-5-((R,3R)-2,2-dichloro-3-(4-fluoro-3-(trifluoromethyl)phenyl)cyclopropane-1-carboxamido)-N-(3-(2-(ethylsulfonyl)propanamido)-2,4-difluorophenyl)benzamide] was run?
Answer: The pest or weed control at 50 µg/cm2 was 50 to 100%.

Question: What about the pest or weed control at 50 µg/cm2 [3] of the same compound?
Answer: The pest or weed control at 50 µg/cm2 was 50 to 100%.

Question: `O=C(CSC(F)(F)F)Nc1c(F)ccc(NC(=O)c2cc(NC(=O)[C@H]3[C@H](c4cccc(C(F)(F)F)c4)C3(Cl)Cl)ccc2Cl)c1F` [F47, 2-Chloro-5-((1R,3R)-2,2-dichloro-3-(3-(trifluoromethyl)phenyl)cyclopropane-1-carboxamido)-N-(2,4-difluoro-3-(2-((trifluoromethyl)thio)acetamido)phenyl)benzamide] was tested. Which pest or weed control at 50 µg/cm2 [1] did it give?
Answer: Its pest or weed control at 50 µg/cm2 is 50 to 100%.

Question: What about the pest or weed control at 50 µg/cm2 [3] of the same compound?
Answer: The pest or weed control at 50 µg/cm2 was 50 to 100%.

Question: Which pest or weed control at 50 µg/cm2 [1] does the source give for `O=C(CSC(F)(F)F)Nc1c(F)ccc(NC(=O)c2cc(NC(=O)[C@H]3[C@H](c4cc(F)cc(C(F)(F)F)c4)C3(Cl)Cl)ccc2Cl)c1F` [F49, 2-Chloro-5-((1R,3R)-2,2-dichloro-3-(3-fluoro-5-(trifluoromethyl)phenyl)cyclopropane-1-carboxamido)-N-(2,4-difluoro-3-(2-((trifluoromethyl)thio)acetamido)phenyl)benzamide] here?
Answer: The pest or weed control at 50 µg/cm2 was 50 to 100%.

Question: What about the pest or weed control at 50 µg/cm2 [3] of the same compound?
Answer: Its pest or weed control at 50 µg/cm2 is 50 to 100%.

Question: Which results are given for `CSCC(=O)Nc1ccc(NC(=O)c2cc(NC(=O)[C@H]3[C@H](c4ccc(F)c(C(F)(F)F)c4)C3(Cl)Cl)ccc2Cl)c(F)c1` [F50, 2-Chloro-5-((1R,3R)-2,2-dichloro-3-(4-fluoro-3-(trifluoromethyl)phenyl)cyclopropane-1-carboxamido)-N-(2-fluoro-4-(2-(methylthio)acetamido)phenyl)benzamide]?
Answer: pest or weed control at 50 µg/cm2 [1]: 50 to 100%; pest or weed control at 50 µg/cm2 [3]: 50 to 100%

Question: Which pest or weed control at 50 µg/cm2 [1] does the source give for `O=C(CSC(F)(F)F)Nc1ccc(NC(=O)c2cc(NC(=O)[C@H]3[C@H](c4ccc(F)c(C(F)(F)F)c4)C3(Cl)Cl)ccc2Cl)c(F)c1` [F51, 2-Chloro-5-((1R,3R)-2,2-dichloro-3-(4-fluoro-3-(trifluoromethyl)phenyl)cyclopropane-1-carboxamido)-N-(2-fluoro-4-(2-((trifluoromethyl)thio)acetamido)phenyl)benzamide] here?
Answer: Its pest or weed control at 50 µg/cm2 is 50 to 100%.

Question: What about the pest or weed control at 50 µg/cm2 [3] of the same compound?
Answer: Its pest or weed control at 50 µg/cm2 is 50 to 100%.

Question: With `O=C(CSCC(F)(F)F)Nc1ccc(NC(=O)c2cc(NC(=O)[C@H]3[C@H](c4ccc(F)c(C(F)(F)F)c4)C3(Cl)Cl)ccc2Cl)c(F)c1` [F52, 2-Chloro-5-((1R,3R)-2,2-dichloro-3-(4-fluoro-3-(trifluoromethyl)phenyl)cyclopropane-1-carboxamido)-N-(2-fluoro-4-(2-((2,2,2-trifluoroethyl)thio)acetamido)phenyl)benzamide] as the compound, how does the pest or weed control at 50 µg/cm2 [1] read?
Answer: Its pest or weed control at 50 µg/cm2 is 50 to 100%.

Question: What about the pest or weed control at 50 µg/cm2 [3] of the same compound?
Answer: The pest or weed control at 50 µg/cm2 was 50 to 100%.
